Source: patent publication US11713309B2, “Solid forms of Cerdulatinib” (Alexion Pharmaceuticals, Inc., priority 2018, dated 2023)
Counter-ions that a name gives are not always drawn. One block for each compound: values may come before it.

How the values were obtained:
Type in all cases: physicochemical
[1] = Slurry competition of free base forms; conditions: from 5° C. to 50° C.
Method: Slurry competition was performed to evaluate the stability of Compound I free base Form II and Type E. A mixture of Compound I free base Form II and Type E were added into 1.0 mL of saturated EtOH or MEK solution (slurry of Form I at 5° C./RT/50° C. overnight). The suspensions were stirred at target temperatures.
Slurry competition was performed to evaluate the stability of free base Form I and Form II. A mixture of free base Form I and Form II were added into 1.0 mL of saturated EtOH or MEK solution (slurry of Form I at 5° C./RT/50° C. overnight). The suspensions were stirred at target temperatures for 3 days.

[2] = XRPD form evaluation of materials recovered after solubility analysis; conditions: aqueous solubility analysis, second scale up material
Method: (§1) The solubility of the salts/co-crystals of Compound I prepared from the second scale up process was analyzed. The materials recovered after the solubility analysis were evaluated by XRPD to observe any form changes.

[3] = Thermodynamic aqueous solubility by HPLC; conditions: HPLC grade water, 25° C., 24 hours, second scale up material
Method: The suspension was equilibrated at 25° C. for 24 hours. The suspension was then passed through a filter into an HPLC vial. The filtrate was then diluted by an appropriate factor. Quantification was executed by HPLC with reference to a standard solution of approximately 1 mg·mL^−1 in acetonitrile:water (1:1). Different volumes of the standard, diluted and undiluted sample solutions were injected. […] HPLC method parameters are described in Table 1 and Table 2.
Analysis was performed on an Agilent 1100 series liquid chromatography, equipped with a UV detector (DAD or VWD) @ 254 nm and using Chemstation Rev.B.01.03 software for data processing.
as §1

[4] = Slurry maturations in various solvents (form reproducibility/stability); conditions: cycling about 25 to about 50° C., about 4 days
Method: A series of slurry maturations in various solvents was performed to further analyze the form reproducibility/stability of the esylate, mesylate, HCl, and sulfate salts/co-crystals of Compound I. The solvents chosen were acetonitrile, EtOAc, ethanol, and IPA. The input materials were the salts/co-crystals of Compound I formed via the second scale up process. About 20 mg of each sample was charged to reflux tubes and heated with temperature cycling between about 25 and about 50° C. for about 4 days. The resulting materials were isolated by filtration and dried in vacuo at about 40° C. The results of the slurry maturations for the resulting HCl and mesylate salts/co-crystals are presented in subsections (a)-(d) below. The data for the resulting esylate and sulfate salts/co-crystals of Compound have been omitted due to notable form variation.

[5] = Moisture uptake study of Compound I HCl amorphous at ambient conditions
[6] = Gravimetric vapor sorption (GVS) hygroscopicity
Method: Sorption isotherms were obtained using a Hiden Isochema moisture sorption analyser (model IGAsorp), controlled by IGAsorp Systems Software v6.50.48. The sample was maintained at a constant temperature (25° C.) by the instrument controls. The humidity was controlled by mixing streams of dry and wet nitrogen, with a total flow of 250 mL·min^−1. The instrument was verified for relative humidity content by measuring three calibrated Rotronic salt solutions (10-50-88%). The weight change of the sample was monitored as a function of humidity by a microbalance (accuracy+/−0.005 mg). A defined amount of sample was placed in a tared mesh stainless steel basket under ambient conditions. A full experimental cycle consisted of two scans (sorption and desorption) at a constant temperature (25° C.) and 10% RH intervals over a 10-90% range (90 minutes for each humidity level).
The hygroscopicity of the esylate, mesylate, HCl, and sulfate salts/co-crystals of Compound I formed via the first scale up process was analyzed. All hygroscopicity experiments covered a wide range of humidity (0 to about 90% relative humidity) and were performed at about 25° C. to assess behavior.

[7] = Thermodynamic pH-solubility profile; conditions: 7 days of shaking, about 37° C. water bath
Description: A thermodynamic pH-solubility profile of Compound I HCl Form I in various buffer or non-buffer solutions is further provided in FIG. 61. FIG. 61 additionally includes the thermodynamic pH-solubility profile of Compound I free base. It is of note that no data is shown in the profile of Compound I free base below a pH of about 2.0, as Compound I free base converted to Compound I HCl Form I below a pH of about 2.0. Similarly, no data is shown in the profile of Compound I HCl Form I above a pH of about 3.0, as Compound I HCl Form I converted to Compound I free base above a pH of about 3.0.

Relative thermodynamic stability (slurry competition with Form I) [1]: more thermodynamically stable
Compound: CCS(=O)(=O)N1CCN(c2ccc(Nc3ncc(C(N)=O)c(NC4CC4)n3)cc2)CC1 [Compound I Form II, 4-(cyclopropylamino)-2-(4-(4-(ethylsulfonyl)piperazin-1-yl)phenylamino)pyrimidine-5-carboxamide]
Relative thermodynamic stability (slurry competition with Type E) [1]: more thermodynamically stable than Type E

Form change on solubility analysis (XRPD post vs pre) [2]: form change to Compound I HCl Form I | solubility ([3]; listed as Comp. I HCl (formed using dry HCl) Form II): 0.12 mg/mL | Form after slurry maturation (XRPD) ([4]; IMA): conversion to Compound I Form I
Compound: CCS(=O)(=O)N1CCN(c2ccc(Nc3ncc(C(N)=O)c(NC4CC4)n3)cc2)CC1 [Compound I HCl Form II, 4-(cyclopropylamino)-2-(4-(4-(ethylsulfonyl)piperazin-1-yl)phenylamino)pyrimidine-5-carboxamide]
Form after slurry maturation (XRPD) ([4]; IPA): conversion to Compound I Form I, yet retains some mixed features | Form after slurry maturation (XRPD) ([4]; acetonitrile and EtOAc): mixture of Compound I Form I, Compound I Form II, and possibly other forms

Crystallinity on exposure to ambient conditions [5]: gradual increase in crystallinity | GVS mass change ([6]; above about 40% RH, most markedly above about 80% RH): large increase in mass
Compound: CCS(=O)(=O)N1CCN(c2ccc(Nc3ncc(C(N)=O)c(NC4CC4)n3)cc2)CC1 [Compound I HCl amorphous, 4-(cyclopropylamino)-2-(4-(4-(ethylsulfonyl)piperazin-1-yl)phenylamino)pyrimidine-5-carboxamide]

solubility ([3]; listed as Comp. I Mesylate Similar to Form III): 2.32 mg/mL
Compound: CCS(=O)(=O)N1CCN(c2ccc(Nc3ncc(C(N)=O)c(NC4CC4)n3)cc2)CC1 [Compound I mesylate Form III, 4-(cyclopropylamino)-2-(4-(4-(ethylsulfonyl)piperazin-1-yl)phenylamino)pyrimidine-5-carboxamide]
Form change on solubility analysis (XRPD post vs pre) [2]: same form, which is different than the forms of either input material | Form after slurry maturation (XRPD) ([4]; acetonitrile, EtOAc, ethanol, IPA, listed as Compound I mesylate (mono-mesylate) Form III): mixture of forms comprising Compound I mesylate Form III and other forms

solubility ([3]; listed as Comp. I Sulfate Similar to Form I): 0.01 mg/mL
Compound: CCS(=O)(=O)N1CCN(c2ccc(Nc3ncc(C(N)=O)c(NC4CC4)n3)cc2)CC1 [Compound I sulfate Form I, 4-(cyclopropylamino)-2-(4-(4-(ethylsulfonyl)piperazin-1-yl)phenylamino)pyrimidine-5-carboxamide]
Form change on solubility analysis (XRPD post vs pre) ([2]; listed as Compound I sulfate prepared from IPA): form change to Compound I sulfate Form II

Form change on solubility analysis (XRPD post vs pre) ([2]; listed as Compound I sulfate prepared from water): no form change | solubility ([3]; listed as Comp. I Sulfate Similar to Form II): 0.007 mg/mL | GVS water absorbed ([6]; 25° C., first scale up material, listed as Comp. I Sulfate Similar to Form II): About 0.5 mg | GVS total weight loss ([6]; dried to 0% RH): about 5.9% | Crystalline form by XRPD post GVS analysis ([6]; exposure to humidity 0 to about 90% RH, about 25° C., listed as crystalline Compound I sulfate sample): slightly increased the crystallinity | Hygroscopicity (qualitative) ([6]; second scale up material): facile pick-up of surface moisture | GVS gradual weight gain ([6]; up to about 80% RH): about 4.2%
Compound: CCS(=O)(=O)N1CCN(c2ccc(Nc3ncc(C(N)=O)c(NC4CC4)n3)cc2)CC1 [Compound I sulfate Form II, 4-(cyclopropylamino)-2-(4-(4-(ethylsulfonyl)piperazin-1-yl)phenylamino)pyrimidine-5-carboxamide]

pH range in which Compound I free base converted to Compound I HCl Form I [7]: < 2.0
Compound: CCS(=O)(=O)N1CCN(c2ccc(Nc3ncc(C(N)=O)c(NC4CC4)n3)cc2)CC1 [Compound I, 4-(cyclopropylamino)-2-((4-(4-(ethylsulfonyl)piperazin-1-yl)phenyl)amino)pyrimidine-5-carboxamide]
